Test results: patent publication US9150632B2 (Indiana University Research and Technology Corporation, priority 2009, dated 2015)
Like-named read-outs stand apart in the source and are kept apart here. Positions of bridges follow the written chain, without caps; N, C: chain ends. Residues, ends and D or L forms follow the SMILES beside them.

Experiments:
glucagon receptor = target: T1, glucagon receptor (Homo sapiens, UniProt P47871); test: Functional assay-cAMP synthesis, luciferase reporter in HEK293 cells, glucagon receptor; type: cell-based; settings: for % Activity of Glucagon: Table 21, relative to the native peptide; for Glucagon Receptor Relative Potency: Table 11
T1 construct: expressed in transfected cells; host or cells: HEK293
Protocol: (§1) Peptide absorbance readings were obtained from UV Absorbance measurements at 280 nm on a Genesys 6 Spectrophotometer (Thermo Electron Corporation). Beer's Law was used to calculate solution concentrations based on the number of tryptophan and tyrosine residues in each analog. At the end of the incubation, 100 μL LucLite luminescence substrate reagent was added to each well, the plate sealed and shaken, and placed into a Wallac Trilux luminescence counter for cAMP detection.
(§2) HEK293 cells were co-transfected with the GcgR or GLP-1R cDNAs and a luciferase reporter gene-linked to a cAMP response element (CRE). […] The plate was incubated for 10 min in the dark and light output was quantified on a MicroBeta1450 liquid scintillation counter (Perkin-Elmer, Wellesley, Mass.).

GLP-1 receptor = GLP-1 receptor (Homo sapiens, UniProt P43220); settings: for % Activity of GLP-1: Table 21, relative to the native peptide; for GLP-1 Receptor Relative Potency: Table 11
Protocol: as §1, §2

[1] = Table 18, relative to the native hormone of the indicated receptor

Chain of GLP-1 receptor (P43220 24-463, species assumed): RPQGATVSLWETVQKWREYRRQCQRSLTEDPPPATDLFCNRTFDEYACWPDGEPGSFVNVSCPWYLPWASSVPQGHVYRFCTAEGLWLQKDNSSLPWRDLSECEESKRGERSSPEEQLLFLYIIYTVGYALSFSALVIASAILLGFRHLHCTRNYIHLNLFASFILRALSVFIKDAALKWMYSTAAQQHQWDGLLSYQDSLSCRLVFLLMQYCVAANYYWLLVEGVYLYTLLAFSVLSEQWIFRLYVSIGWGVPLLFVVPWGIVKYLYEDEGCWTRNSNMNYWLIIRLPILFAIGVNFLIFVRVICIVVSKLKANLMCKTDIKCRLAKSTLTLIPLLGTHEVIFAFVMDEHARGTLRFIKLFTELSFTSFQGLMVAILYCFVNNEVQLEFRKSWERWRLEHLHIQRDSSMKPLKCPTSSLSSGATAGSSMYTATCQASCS
T1 sequence (P47871 26-477): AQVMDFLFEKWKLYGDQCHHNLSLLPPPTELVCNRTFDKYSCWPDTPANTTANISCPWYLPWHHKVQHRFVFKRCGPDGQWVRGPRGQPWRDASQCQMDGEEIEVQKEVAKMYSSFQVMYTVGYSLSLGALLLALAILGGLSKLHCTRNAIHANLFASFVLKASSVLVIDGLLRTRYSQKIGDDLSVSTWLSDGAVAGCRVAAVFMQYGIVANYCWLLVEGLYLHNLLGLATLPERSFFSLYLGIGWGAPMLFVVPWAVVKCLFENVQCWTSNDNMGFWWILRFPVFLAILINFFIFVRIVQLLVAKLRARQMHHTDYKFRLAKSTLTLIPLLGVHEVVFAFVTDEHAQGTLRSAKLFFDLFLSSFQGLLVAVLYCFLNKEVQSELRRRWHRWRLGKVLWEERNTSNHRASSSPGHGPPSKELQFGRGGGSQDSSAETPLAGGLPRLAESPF

Compound	% Activity of Glucagon (glucagon receptor)	% Activity of GLP-1 (GLP-1 receptor)	GLP-1 Receptor Relative Potency (GLP-1 receptor)	other results
CSCC[C@H](NC(=O)[C@H](CC(C)C)NC(=O)[C@H](Cc1c[nH]c2ccccc12)NC(=O)[C@H](CC(N)=O)NC(=O)[C@@H](NC(=O)[C@H](Cc1ccccc1)NC(=O)[C@H](CCC(=O)O)NC(=O)[C@@H]1CCCCNC(=O)CC[C@H](NC(=O)[C@H](CC(=O)O)NC(=O)[C@H](CC(C)C)NC(=O)[C@H](Cc2ccc(O)cc2)NC(=O)[C@H](CCCCN)NC(=O)[C@H](CO)NC(=O)[C@H](Cc2ccc(O)cc2)NC(=O)[C@H](CC(=O)O)NC(=O)[C@H](CO)NC(=O)[C@@H](NC(=O)[C@H](Cc2ccccc2)NC(=O)[C@@H](NC(=O)CNC(=O)[C@H](CCC(N)=O)NC(=O)[C@H](CO)NC(=O)[C@@H](N)Cc2ccc(O)cc2)[C@@H](C)O)[C@@H](C)O)C(=O)N[C@@H](CCC(N)=O)C(=O)N[C@@H](C)C(=O)N[C@@H](C)C(=O)N1)C(C)C)C(=O)N[C@@H](CC(N)=O)C(=O)NCC(=O)NCC(=O)N1CCC[C@H]1C(=O)N[C@@H](CO)C(=O)N[C@@H](CO)C(=O)NCC(=O)N[C@@H](C)C(=O)N1CCC[C@H]1C(=O)N1CCC[C@H]1C(=O)N1CCC[C@H]1C(=O)N[C@@H](CO)C(N)=O [SEQ ID NO: 555] (H-YSQGTFTSDYSKYLDEQAAKEFVNWLMNGGPSSGAPPPS-NH2; lactam 16-20; N-terminus assumed)				Relative Activity, Glucagon receptor (glucagon receptor; [1]): 343.18%; Relative Activity, GLP-1 receptor (GLP-1 receptor; [1]): 100.00%
CCCCCCCCCCCCCCCC(=O)NCCCC[C@H](NC(=O)[C@H](CC(=O)O)NC(=O)[C@H](CO)NC(=O)[C@@H](NC(=O)[C@H](Cc1ccccc1)NC(=O)[C@@H](NC(=O)CNC(=O)[C@H](CCC(N)=O)NC(=O)C(C)(C)NC(=O)[C@@H](N)Cc1c[nH]cn1)[C@@H](C)O)[C@@H](C)O)C(=O)N[C@@H](CO)C(=O)N[C@@H](CCCCN)C(=O)N[C@@H](Cc1ccc(O)cc1)C(=O)N[C@@H](CC(C)C)C(=O)N[C@@H](CC(=O)O)C(=O)NC(C)(C)C(=O)N[C@@H](CCCNC(=N)N)C(=O)N[C@@H](CCCNC(=N)N)C(=O)N[C@@H](C)C(=O)N[C@@H](CCC(N)=O)C(=O)N[C@@H](CC(=O)O)C(=O)N[C@@H](Cc1ccccc1)C(=O)N[C@H](C(=O)N[C@@H](CCC(N)=O)C(=O)N[C@@H](Cc1c[nH]c2ccccc12)C(=O)N[C@@H](CC(C)C)C(=O)N[C@@H](CCSC)C(=O)N[C@@H](CC(N)=O)C(=O)N[C@H](C(N)=O)[C@@H](C)O)C(C)C [AIB2, AIB16, K10(C16) Gluc Amide]	170%	72.3%		
CCCCCCCCCCCCCC(=O)NCCCC[C@H](NC(=O)[C@H](CC(=O)O)NC(=O)[C@H](CO)NC(=O)[C@@H](NC(=O)[C@H](Cc1ccccc1)NC(=O)[C@@H](NC(=O)CNC(=O)[C@H](CCC(N)=O)NC(=O)C(C)(C)NC(=O)[C@@H](N)Cc1c[nH]cn1)[C@@H](C)O)[C@@H](C)O)C(=O)N[C@@H](CO)C(=O)N[C@@H](CCCCN)C(=O)N[C@@H](Cc1ccc(O)cc1)C(=O)N[C@@H](CC(C)C)C(=O)N[C@@H](CC(=O)O)C(=O)NC(C)(C)C(=O)N[C@@H](CCCNC(=N)N)C(=O)N[C@@H](CCCNC(=N)N)C(=O)N[C@@H](C)C(=O)N[C@@H](CCC(N)=O)C(=O)N[C@@H](CC(=O)O)C(=O)N[C@@H](Cc1ccccc1)C(=O)N[C@H](C(=O)N[C@@H](CCC(N)=O)C(=O)N[C@@H](Cc1c[nH]c2ccccc12)C(=O)N[C@@H](CC(C)C)C(=O)N[C@@H](CCSC)C(=O)N[C@@H](CC(N)=O)C(=O)N[C@H](C(N)=O)[C@@H](C)O)C(C)C [AIB2, AIB16, K10(C14) Gluc Amide]	77.3%	33.3%		
CCCCCCCCCCCCCCCC(=O)NCCCC[C@H](NC(=O)[C@H](CC(=O)O)NC(=O)[C@H](CO)NC(=O)[C@@H](NC(=O)[C@H](Cc1ccccc1)NC(=O)[C@@H](NC(=O)CNC(=O)[C@H](CCC(N)=O)NC(=O)[C@@H](CO)NC(=O)[C@@H](N)Cc1c[nH]cn1)[C@@H](C)O)[C@@H](C)O)C(=O)N[C@@H](CO)C(=O)N[C@@H](CCCCN)C(=O)N[C@@H](Cc1ccc(O)cc1)C(=O)N[C@@H](CC(C)C)C(=O)N[C@@H](CC(=O)O)C(=O)N[C@@H](CCC(=O)O)C(=O)N[C@@H](CCCNC(=N)N)C(=O)N[C@@H](CCCNC(=N)N)C(=O)N[C@@H](C)C(=O)N[C@@H](CCCCN)C(=O)N[C@@H](CC(=O)O)C(=O)N[C@@H](Cc1ccccc1)C(=O)N[C@H](C(=O)N[C@@H](CCC(N)=O)C(=O)N[C@@H](Cc1c[nH]c2ccccc12)C(=O)N[C@@H](CC(C)C)C(=O)N[C@@H](CCSC)C(=O)N[C@@H](CC(N)=O)C(=O)N[C@H](C(N)=O)[C@@H](C)O)C(C)C [dS2, E16/K20, K10(C16) Gluc Amide, HXQGTFTSDKSKYLDERRAKDFVQWLMNT-amide]	44.7%	19.5%		
CSCC[C@H](NC(=O)[C@H](CC(C)C)NC(=O)[C@H](Cc1c[nH]c2ccccc12)NC(=O)[C@H](CCC(N)=O)NC(=O)[C@@H](NC(=O)[C@H](Cc1ccccc1)NC(=O)[C@H](CC(=O)O)NC(=O)[C@H](CCCCN)NC(=O)[C@H](C)NC(=O)[C@H](CCCNC(=N)N)NC(=O)[C@H](CCCNC(=N)N)NC(=O)[C@H](CCC(=O)O)NC(=O)[C@H](CC(=O)O)NC(=O)[C@H](CC(C)C)NC(=O)[C@H](Cc1ccc(O)cc1)NC(=O)[C@H](CCCCN)NC(=O)[C@H](CO)NC(=O)[C@H](Cc1ccc(O)cc1)NC(=O)[C@H](CC(=O)O)NC(=O)[C@H](CO)NC(=O)[C@@H](NC(=O)[C@H](Cc1ccccc1)NC(=O)[C@@H](NC(=O)CNC(=O)[C@H](CCC(N)=O)NC(=O)[C@H](CO)NC(=O)[C@@H](N)Cc1c[nH]cn1)[C@@H](C)O)[C@@H](C)O)C(C)C)C(=O)N[C@@H](CC(N)=O)C(=O)N[C@H](C(N)=O)[C@@H](C)O [E16, K20 Gluc-NH2]				Percent Potency Relative to Native Ligand GRec (glucagon receptor; Table 5): 130.1%; Percent Potency Relative to Native Ligand GRec (glucagon receptor; Table 9): 130.1%; Percent Potency Relative to Native Ligand GLP-1Rec (GLP-1 receptor; Table 5): 41.5%; Percent Potency Relative to Native Ligand GLP-1Rec (GLP-1 receptor; Table 9): 41.5%
CCCCCCCCCCCCCC(=O)NCCCC[C@H](NC(=O)[C@H](CC(=O)O)NC(=O)[C@H](CO)NC(=O)[C@@H](NC(=O)[C@H](Cc1ccccc1)NC(=O)[C@@H](NC(=O)CNC(=O)[C@H](CCC(N)=O)NC(=O)[C@@H](CO)NC(=O)[C@@H](N)Cc1c[nH]cn1)[C@@H](C)O)[C@@H](C)O)C(=O)N[C@@H](CO)C(=O)N[C@@H](CCCCN)C(=O)N[C@@H](Cc1ccc(O)cc1)C(=O)N[C@@H](CC(C)C)C(=O)N[C@@H](CC(=O)O)C(=O)N[C@@H](CCC(=O)O)C(=O)N[C@@H](CCCNC(=N)N)C(=O)N[C@@H](CCCNC(=N)N)C(=O)N[C@@H](C)C(=O)N[C@@H](CCCCN)C(=O)N[C@@H](CC(=O)O)C(=O)N[C@@H](Cc1ccccc1)C(=O)N[C@H](C(=O)N[C@@H](CCC(N)=O)C(=O)N[C@@H](Cc1c[nH]c2ccccc12)C(=O)N[C@@H](CC(C)C)C(=O)N[C@@H](CCSC)C(=O)N[C@@H](CC(N)=O)C(=O)N[C@H](C(N)=O)[C@@H](C)O)C(C)C [dS2, E16/K20, K10(C14) Gluc Amide, HXQGTFTSDKSKYLDERRAKDFVQWLMNT-amide]	21.9%	6.3%		
CSCC[C@H](NC(=O)[C@H](CC(C)C)NC(=O)[C@H](Cc1c[nH]c2ccccc12)NC(=O)[C@H](CCC(N)=O)NC(=O)[C@@H](NC(=O)[C@H](Cc1ccccc1)NC(=O)[C@H](CC(=O)O)NC(=O)[C@H](CCC(N)=O)NC(=O)[C@H](C)NC(=O)[C@H](CCCNC(=N)N)NC(=O)[C@H](CCCNC(=N)N)NC(=O)[C@H](CO)NC(=O)[C@H](CC(=O)O)NC(=O)[C@H](CC(C)C)NC(=O)[C@H](Cc1ccc(O)cc1)NC(=O)[C@H](CCCCN)NC(=O)[C@H](CO)NC(=O)[C@H](Cc1ccc(O)cc1)NC(=O)[C@H](CC(=O)O)NC(=O)[C@H](CO)NC(=O)[C@@H](NC(=O)[C@H](Cc1ccccc1)NC(=O)[C@@H](NC(=O)CNC(=O)[C@H](CCC(N)=O)NC(=O)[C@H](CO)NC(=O)[C@@H](N)Cc1c[nH]cn1)[C@@H](C)O)[C@@H](C)O)C(C)C)C(=O)N[C@@H](CC(N)=O)C(=O)NCC(=O)NCC(=O)N1CCC[C@H]1C(=O)N[C@@H](CO)C(=O)N[C@@H](CO)C(=O)NCC(=O)N[C@@H](C)C(=O)N1CCC[C@H]1C(=O)N1CCC[C@H]1C(=O)N1CCC[C@H]1C(=O)N[C@@H](CO)C(N)=O [MNGG^30 PSSGAPPPS (SEQ ID NO: 522)]			8%	Glucagon Receptor Relative Potency (glucagon receptor): 30%
H-HSQGTFTSDYSKYLDSRRAQDFVQWLVKGGPSSGAPPPS-NH2 [VKGG^30 PSSGAPPPS (SEQ ID NO: 524)]			12%	Glucagon Receptor Relative Potency (glucagon receptor): 7%
CC[C@H](C)[C@H](NC(=O)[C@H](Cc1ccccc1)NC(=O)[C@H](CCC(=O)O)NC(=O)[C@H](CCCCN)NC(=O)[C@H](C)NC(=O)[C@H](C)NC(=O)[C@H](CCC(N)=O)NC(=O)CNC(=O)[C@H](CCC(=O)O)NC(=O)[C@H](CC(C)C)NC(=O)[C@H](Cc1ccc(O)cc1)NC(=O)[C@H](CO)NC(=O)[C@H](CO)NC(=O)[C@@H](NC(=O)[C@H](CC(=O)O)NC(=O)[C@H](CO)NC(=O)[C@@H](NC(=O)[C@H](Cc1ccccc1)NC(=O)[C@@H](NC(=O)CNC(=O)[C@H](CCC(=O)O)NC(=O)[C@H](C)NC(=O)[C@@H](N)Cc1c[nH]cn1)[C@@H](C)O)[C@@H](C)O)C(C)C)C(=O)N[C@@H](C)C(=O)N[C@@H](Cc1c[nH]c2ccccc12)C(=O)N[C@@H](CC(C)C)C(=O)N[C@H](C(=O)N[C@@H](CCCCN)C(=O)NCC(=O)NCC(N)=O)C(C)C [GLP-1-VKGG^30 (SEQ ID NO: 527), HAEGTFTSDVSSYLEGQAAKEFIAW LVKGGa, reference compound]			100%	
